Source: article PMC6791878, “Evaluation of integrin αvβ6 cystine knot PET tracers to detect cancer and idiopathic pulmonary fibrosis” (Nature Communications, 2019)
Values joined by “and” are separate entries in the source; they are usually repeats but may differ in a detail not shown here. Equal entries are not always repeated. Where two headings read alike, the source gives them in different places.

Columns and labels:
[1] = molecular target: T1, human integrin αvβ6 (Homo sapiens, UniProt P06756+P18564, DEL708-788); assay: Equilibrium binding of yeast-displayed knottins to soluble integrin αvβ6 (two-colour flow cytometry, KD); conditions: KD, equilibrium binding, knottin expressed on yeast surface vs soluble human integrin αvβ6; ± S.D., three replicates on separate days
T1 construct: purchased R&D Systems
T1 sequence (P06756 31-992 limits assumed, stated change not applied): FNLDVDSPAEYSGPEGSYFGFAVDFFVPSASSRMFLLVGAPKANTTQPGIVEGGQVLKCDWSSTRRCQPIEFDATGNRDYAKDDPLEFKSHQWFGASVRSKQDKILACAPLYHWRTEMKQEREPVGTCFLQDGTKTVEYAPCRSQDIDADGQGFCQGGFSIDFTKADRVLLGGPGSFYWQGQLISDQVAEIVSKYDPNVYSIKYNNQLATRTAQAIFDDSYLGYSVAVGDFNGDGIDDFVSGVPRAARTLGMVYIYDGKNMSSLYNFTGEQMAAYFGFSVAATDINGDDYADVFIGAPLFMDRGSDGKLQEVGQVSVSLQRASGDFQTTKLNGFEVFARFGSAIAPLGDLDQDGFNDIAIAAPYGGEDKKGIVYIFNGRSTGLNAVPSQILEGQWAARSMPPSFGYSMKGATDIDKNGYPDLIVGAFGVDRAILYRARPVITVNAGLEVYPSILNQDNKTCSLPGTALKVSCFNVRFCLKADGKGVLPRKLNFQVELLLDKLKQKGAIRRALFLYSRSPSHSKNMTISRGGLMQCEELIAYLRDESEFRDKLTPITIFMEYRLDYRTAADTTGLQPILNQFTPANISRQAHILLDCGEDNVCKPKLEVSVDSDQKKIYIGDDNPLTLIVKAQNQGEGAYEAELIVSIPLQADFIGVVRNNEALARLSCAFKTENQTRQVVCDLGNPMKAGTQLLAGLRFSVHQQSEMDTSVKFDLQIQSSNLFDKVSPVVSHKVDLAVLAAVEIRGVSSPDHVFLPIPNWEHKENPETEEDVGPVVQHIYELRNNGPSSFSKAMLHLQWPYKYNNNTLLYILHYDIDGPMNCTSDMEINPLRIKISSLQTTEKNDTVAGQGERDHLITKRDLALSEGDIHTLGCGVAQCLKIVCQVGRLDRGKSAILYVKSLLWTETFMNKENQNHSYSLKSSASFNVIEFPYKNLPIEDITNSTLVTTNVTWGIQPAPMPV
T1 sequence (P18564 22-707 limits assumed, stated change not applied): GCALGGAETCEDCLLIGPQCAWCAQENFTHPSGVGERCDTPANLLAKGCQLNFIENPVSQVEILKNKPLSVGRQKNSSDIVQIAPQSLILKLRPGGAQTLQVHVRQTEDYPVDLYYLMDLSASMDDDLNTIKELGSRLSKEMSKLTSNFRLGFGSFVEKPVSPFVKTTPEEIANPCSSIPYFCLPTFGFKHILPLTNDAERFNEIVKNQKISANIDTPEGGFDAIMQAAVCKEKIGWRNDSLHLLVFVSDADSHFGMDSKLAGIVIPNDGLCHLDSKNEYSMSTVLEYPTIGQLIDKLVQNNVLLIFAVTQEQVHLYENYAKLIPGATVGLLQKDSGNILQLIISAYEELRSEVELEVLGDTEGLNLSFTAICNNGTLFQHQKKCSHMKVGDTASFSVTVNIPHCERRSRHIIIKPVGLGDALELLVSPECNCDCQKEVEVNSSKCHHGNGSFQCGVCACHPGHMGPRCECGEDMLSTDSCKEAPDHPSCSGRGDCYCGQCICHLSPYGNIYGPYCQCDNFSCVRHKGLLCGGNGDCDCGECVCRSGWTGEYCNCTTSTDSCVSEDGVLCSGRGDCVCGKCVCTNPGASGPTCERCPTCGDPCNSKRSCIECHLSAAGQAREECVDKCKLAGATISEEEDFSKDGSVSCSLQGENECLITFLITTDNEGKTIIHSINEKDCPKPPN

[2] = molecular target: T1, human integrin αvβ6; assay: Competition binding (IC50) against yeast surface-displayed R01-MG; conditions: for binding affinity for integrin avb6 in competition binding (IC50), in words: compete with R01-MG displayed on yeast
[3] = test system: Sprague Dawley rats; assay type: in vivo, rat
Method: Groups of 5 animals sex^−1 were sacrificed on Study Days 3 (48 h) and 15 for evaluation of clinical pathology and organ toxicity. […] Parameters evaluated for test article effect included survival, clinical observations, body weight, body weight gain, clinical pathology, gross pathology, organ weights, and microscopic pathology.
The purpose of this study was to evaluate the toxicity of [19F]FP-R 1-MG-F2 following a single […]
intra ven ous dose in rats. This study consisted of one test article treatment group of ten male and ten fem ale Spr ague-Dawley rats dosed with [19F]FP-R 1-MG-F2 (note - sm all m olecule […]
[…] An additio na l grou p of ten m ales and ten females received the vehicle, 10% Ethanol in Sterile Saline, and ser ved as the control. All rats received a dose volum e of 5 m L/k g. T he rats were dosed intravenous ly onc e on Stud y Da y 1.
Five m ale and five fem ale rats from each group were bled on Stud y Da y 3 and the rem aining rats were bled on Stud y D ay 15. All an im als were e u than ized a nd necrops ied f ollo wing b loo d collect ion . Param eters evalu ated f or test art icle ef f ect inclu ded sur viva l, clin ica l obser vat ions, bod y weight, bod y weight gain, clinical patholog y, gross pathology, organ weights, and […]
the study. No abnorm al findings were indicated dur ing mortality checks (cagesides) or hands-on […]
be related to treatm ent related.
Under the conditions of this study, there were no treatm ent related findings in Sprague Dawley rats three or fifteen da ys after a single intravenous dose of [19F]FP-R01-MG-F2 at 1.10 mg/kg. […]
intravenous dose in rats. […]
The test article (TA), [19F]FP-R 1-MG-F2, was received from the Sponsor on Aug ust 25, […]
2014, described as a wh ite po wd er . The test article was stored frozen in a g lass vial.
Copies of the Test Artic le Data Sheets are included in Appendix D.
Note: Test article nam e as per the Qualit y Control Record (Appendix D) is listed as FP-GLY-36-Gly-NH2, which represents the chem ical structure. T he test article is referred to b y the comm ercial nam e provided b y the client ([19F]FP-R 1-MG-F2) throughout this report and […]
Name Lot No. Supplier Purit y
The vehicle used in this study was 10% Ethanol in Sterile Saline (0.9% sodium chloride, USP). The vehic le com ponents were purchased commercially b y SoBran and stored at room tem perature in accordance with the m anufacturer instructions. Copies of the Certificate of Anal yses for the lots of 10% Ethanol and Sterile Saline used are included in […]
Name Lot No. Supplier Concentration
Etha no l (20 0 pro of ), USP SHBB0 212 V Sigm a Aldrich; Sa int 99.87% […]
0.9% Sod ium Chlor ide, USP C886374 Baxter; C le ve lan d, 0.888% […]
The 0.22 mg/mL test article solution was pr epar ed b y adding 40 mL of 10% ethanol solution (vehicle control) to 8.8 mg of the test article, mixed gently, and then filtered using a 2µ sterile syringe filter. The pH of the 10% ethanol solution wa s adj us ted us ing HCl and NaO H to achieve a pH of 7.4. The vehicle was passed through a 2µ sterile syringe filter af t er pH […]
On October 2, 2014, 21 male and 21 female Sprague-Dawle y rats were obtained from Harlan, Frederick , MD. The supplier verified that the anim als were free of specific active inf ectious dise ases prior to arriva l at the SoBra n f acilit y. At init iat ion of dosing , the m ale and fem ale rats were 7 week s of age, (Date of Birth: 8/15/14). At ra ndom iza tion th e bod y weights of the rats used on stud y ranged from 199.05 to 218.61 gram s (m ales) […]
Rats were chosen for use in this stud y since the y are considered an acceptable anim al model for the rodent species for acute toxicity tests prior to clinical use.
The animals were housed following the specifications recommended in The Guide for the […]

[4] = Day 3, Group 2 males, p < 0.05, within historical range

**Q.** What does the source list for `CC[C@H](C)[C@@H]1NC(=O)[C@@H](NC(=O)CN)CSSC[C@@H]2NC(=O)[C@H](C)NC(=O)CNC(=O)[C@@H]3CCCN3C(=O)[C@@H]3CSSC[C@@H](C(=O)NCC(N)=O)NC(=O)[C@H](Cc4ccc(O)cc4)NC(=O)CNC(=O)[C@H](CC(N)=O)NC(=O)CNC(=O)[C@H](CCCNC(=N)N)NC(=O)[C@H](CSSC[C@H](NC(=O)[C@H](CCCNC(=N)N)NC(=O)[C@H](Cc4ccccc4)NC(=O)[C@H](CC(C)C)NC(=O)[C@H](CC(C)C)NC(=O)[C@H]([C@@H](C)O)NC(=O)CNC(=O)[C@H](CC(C)C)NC(=O)[C@H](CC(=O)O)NC(=O)[C@H]([C@@H](C)O)NC(=O)[C@H](CCCNC(=N)N)NC(=O)CNC(=O)[C@H](CC(N)=O)NC(=O)[C@H](CC(C)C)NC1=O)C(=O)N[C@@H](CCCNC(=N)N)C(=O)N[C@@H](CCCNC(=N)N)C(=O)N[C@@H](CC(=O)O)C(=O)N[C@@H](CO)C(=O)N[C@@H](CC(=O)O)C(=O)N3)NC(=O)[C@H]([C@@H](C)CC)NC2=O` [R01-MG]?
**A.** Kd [1]: ~1 nM and 1.24 nM; binding affinity for integrin avb6 in competition binding (IC50), in words [2]: subnanomolar

**Q.** `CC[C@H](C)[C@@H]1NC(=O)[C@@H](NC(=O)CNC(=O)[C@@H](C)F)CSSC[C@@H]2NC(=O)[C@H](C)NC(=O)CNC(=O)[C@@H]3CCCN3C(=O)[C@@H]3CSSC[C@@H](C(=O)NCC(N)=O)NC(=O)[C@H](Cc4ccc(O)cc4)NC(=O)CNC(=O)[C@H](CC(N)=O)NC(=O)CNC(=O)[C@H](CCCNC(=N)N)NC(=O)[C@H](CSSC[C@H](NC(=O)[C@H](CCCNC(=N)N)NC(=O)[C@H](Cc4ccccc4)NC(=O)[C@H](CC(C)C)NC(=O)[C@H](CC(C)C)NC(=O)[C@H]([C@@H](C)O)NC(=O)CNC(=O)[C@H](CC(C)C)NC(=O)[C@H](CC(=O)O)NC(=O)[C@H]([C@@H](C)O)NC(=O)[C@H](CCCNC(=N)N)NC(=O)CNC(=O)[C@H](CC(N)=O)NC(=O)[C@H](CC(C)C)NC1=O)C(=O)N[C@@H](CCCNC(=N)N)C(=O)N[C@@H](CCCNC(=N)N)C(=O)N[C@@H](CC(=O)O)C(=O)N[C@@H](CO)C(=O)N[C@@H](CC(=O)O)C(=O)N3)NC(=O)[C@H]([C@@H](C)CC)NC2=O` [[^19F]FP-R01-MG-F2] was tested. Which “Organ weight, Brain, mean” value ([3]; Day 3, Group 2 females) did it give?
**A.** 1.5766

**Q.** What about the “Organ weight, Eyes with optic nerve, mean” value (“Organ weight, Eyes” below) ([3]; Day 3, Group 2 females) of the same molecule?
**A.** 0.2641

**Q.** What about the “Organ weight, Heart, mean” value ([3]; Day 3, Group 2 females) of the same molecule?
**A.** 0.6540

**Q.** What about the “Organ weight, Kidneys, mean” value ([3]; Day 3, Group 2 females) of the same molecule?
**A.** 1.2874

**Q.** And the “Organ weight, Liver, mean” value ([3]; Day 3, Group 2 females)?
**A.** 5.9521

**Q.** What about the “Organ weight, Lungs, mean” value ([3]; Day 3, Group 2 females) of the same molecule?
**A.** 1.5304

**Q.** And the “Organ weight, Ovaries, mean” value ([3]; Day 3, Group 2 females)?
**A.** 0.1595

**Q.** What about the “Organ weight, Spleen, mean” value ([3]; Day 3, Group 2 females) of the same molecule?
**A.** 0.4955

**Q.** What about the “Organ weight, Thyroid (both lobes with parathyroid), mean” value (“Organ weight, Thyroid” below) ([3]; Day 3, Group 2 females) of the same molecule?
**A.** 0.0479

**Q.** And the “Organ weight, Brain, mean” value ([3]; Day 3, Group 2 males)?
**A.** 1.7081

**Q.** What about the “Organ weight, Eyes” value ([3]; Day 3, Group 2 males) of the same molecule?
**A.** 0.3216

**Q.** And the “Organ weight, Heart, mean” value ([3]; Day 3, Group 2 males)?
**A.** 0.9438

**Q.** What about the “Organ weight, Kidneys, mean” value ([3]; Day 3, Group 2 males) of the same molecule?
**A.** 1.7156

**Q.** And the “Organ weight, Liver, mean” value ([3]; Day 3, Group 2 males)?
**A.** 8.4988

**Q.** And the “Organ weight, Lungs, mean” value ([3]; Day 3, Group 2 males)?
**A.** 1.6368

**Q.** And the “Organ weight, Spleen, mean” value ([3]; Day 3, Group 2 males)?
**A.** 0.6601

**Q.** And the “Organ weight, Testes, mean” value ([3]; Day 3, Group 2 males)?
**A.** 2.9952

**Q.** What about the “Organ weight, Thyroid” value ([3]; Day 3, Group 2 males) of the same molecule?
**A.** 0.0299

**Q.** And the “alkaline phosphatase (ALP) vs control” value ([3]; Day 3, Group 2 males, p < 0.05, not believed biologically meaningful)?
**A.** increase

**Q.** What about the “absolute large unstained cell counts (ALUC) vs control” value [3, 4] of the same molecule?
**A.** increased

**Q.** And the “absolute lymphocyte counts (ALY) vs control” value [3, 4]?
**A.** increased

**Q.** And the “absolute monocyte counts (AMO) vs control” value [3, 4]?
**A.** increased

**Q.** What about the “white blood cell counts (WBC) vs control” value [3, 4] of the same molecule?
**A.** increased

**Q.** And the “Organ weight, Brain, mean” value ([3]; Day 15, Group 2 females)?
**A.** 1.5915

**Q.** What about the “Organ weight, Eyes” value ([3]; Day 15, Group 2 females) of the same molecule?
**A.** 0.2965

**Q.** And the “Organ weight, Heart, mean” value ([3]; Day 15, Group 2 females)?
**A.** 0.7068

**Q.** And the “Organ weight, Kidneys, mean” value ([3]; Day 15, Group 2 females)?
**A.** 1.3894

**Q.** What about the “Organ weight, Liver, mean” value ([3]; Day 15, Group 2 females) of the same molecule?
**A.** 7.3444

**Q.** And the “Organ weight, Lungs, mean” value ([3]; Day 15, Group 2 females)?
**A.** 1.5063

**Q.** And the “Organ weight, Ovaries, mean” value ([3]; Day 15, Group 2 females)?
**A.** 0.1569

**Q.** And the “Organ weight, Spleen, mean” value ([3]; Day 15, Group 2 females)?
**A.** 0.5718

**Q.** And the “Organ weight, Thyroid” value ([3]; Day 15, Group 2 females)?
**A.** 0.0355

**Q.** What about the “activated partial thromboplastin time vs control” value ([3]; Day 15, Group 2 females, p < 0.05, within historical range) of the same molecule?
**A.** decrease

**Q.** And the “Organ weight, Brain, mean” value ([3]; Day 15, Group 2 males)?
**A.** 1.5942

**Q.** What about the “Organ weight, Eyes” value ([3]; Day 15, Group 2 males) of the same molecule?
**A.** 0.3204

**Q.** What about the “Organ weight, Heart, mean” value ([3]; Day 15, Group 2 males) of the same molecule?
**A.** 1.0593

**Q.** And the “Organ weight, Kidneys, mean” value ([3]; Day 15, Group 2 males)?
**A.** 2.1137

**Q.** And the “Organ weight, Liver, mean” value ([3]; Day 15, Group 2 males)?
**A.** 11.2236

**Q.** What about the “Organ weight, Lungs, mean” value ([3]; Day 15, Group 2 males) of the same molecule?
**A.** 2.0208

**Q.** What about the “Organ weight, Spleen, mean” value ([3]; Day 15, Group 2 males) of the same molecule?
**A.** 0.6991

**Q.** What about the “Organ weight, Testes, mean” value ([3]; Day 15, Group 2 males) of the same molecule?
**A.** 3.5798

**Q.** What about the “Organ weight, Thyroid” value ([3]; Day 15, Group 2 males) of the same molecule?
**A.** 0.0238

**Q.** And the “mean corpuscular hemoglobin (MCH) vs control” value ([3]; Day 15, Group 2 males, p < 0.05, within historical range)?
**A.** increase

**Q.** What about the “alanine aminotransferase (ALT) vs control” value ([3]; Days 3 and 15, Group 2 males, p < 0.05, not believed biologically meaningful) of the same molecule?
**A.** elevated

**Q.** And the “organ weights and microscopic pathology findings” value ([3]; […] single i.v.)?
**A.** No treatm ent-related findings

**Q.** And the “bodyweights of treated females on Day 3 vs control” value ([3]; p < 0.05, judged not treatment related)?
**A.** significant increase

**Q.** What about the IC50 [2] of the same molecule?
**A.** 0.56 ± 0.46 nM

**Q.** What about the “binding affinity for integrin avb6 in competition binding (IC50), in words” value [2] of the same molecule?
**A.** subnanomolar
